Results: patent US12018020B2, “Crystalline forms of 1-[(3R,4S)-4-cyanotetrahydropyran-3-yl]-3-[(2-fluoro-6-methoxy-4-pyridyl)amino]pyrazole-4-carboxamide” (Intervet Inc., priority 2018, dated 2024)
In brackets after ≈: the same amount, converted by molar mass. Where two headings read alike, the source gives them in different places.

Key:
Format in all cases: physicochemical
[1] = Solubility in 7/3 v/v toluene/MeOH
[2] = Conversion to hydrate risk: slurry in 5% SLS aqueous solution seeded with 5% hydrate seeds, PXRD; conditions: 20 mg/mL in 5% SLS aqueous solution, 24 hours
Experimental: Slurry experiments in water containing 5% SLS were used to assess the risk of form conversion during wet granulation. Typical wet granulation conditions include drying at 60 to 70° C. for 1.5 to 2 hours.
Slurries containing 20 mg/mL of either Form 1 or Form 2 in 5% sodium lauryl sulfate (SLS) aqueous solution were seeded with 5% hydrate seeds and monitored for form change with PXRD over 24 hours at room temperature and at 80° C.

[3] = Storage stability (processability assessment), 12 months
Text: There is a risk of Form 2 conversion to hydrate at the typical wet granulation temperature when seeds of hydrate are present.

[4] = Slurry form-conversion experiments in organic solvents (relative thermodynamic stability)
Text: Form 1 and Form 2 are monotropically related.
This is evidence that Form 1 is more thermodynamically stable than Form 2.

[5] = 40° C./75% relative humidity (RH)

## COc1cc(Nc2nn([C@H]3COCC[C@@H]3C#N)cc2C(N)=O)cc(F)n1 [Form 1, 1-[(3R,4S)-4-cyanotetrahydropyran-3-yl]-3-[(2-fluoro-6-methoxy-4-pyridyl)amino]pyrazole-4-carboxamide]
[1]; 25 °C, organic solvent or mixture, 25 °C, read-out: Solubility
  solubility: 3400 µg/mL (≈ 9.44 mM)
[1]; 40 °C, organic solvent or mixture, 40 °C, read-out: Solubility
  solubility: 6600 µg/mL (≈ 18.3 mM)
[1]; 60 °C, organic solvent or mixture, 60 °C, read-out: Solubility
  solubility: 12500 µg/mL (≈ 34.7 mM)
[2]; 80° C.
  Hydrate peak growth (PXRD): No hydrate peak growth observed
[2]; room temperature
  Hydrate peak growth (PXRD): No hydrate peak growth observed
[3]; [5]
  Physical and chemical stability on storage: physically and chemically stable
[3]; 55° C.
  Physical and chemical stability on storage: physically and chemically stable
[4]; Form 1 versus Form 2, monotropically related
  Relative thermodynamic stability: more stable than Form 2
[4]; slurried in MeOH, 3 weeks, room temperature
  Form after slurry: remained as Form 1

## COc1cc(Nc2nn([C@H]3COCC[C@@H]3C#N)cc2C(N)=O)cc(F)n1 [Form 2, 1-[(3R,4S)-4-cyanotetrahydropyran-3-yl]-3-[(2-fluoro-6-methoxy-4-pyridyl)amino]pyrazole-4-carboxamide]
[1]; 25 °C
  solubility: 4700 µg/mL (≈ 13 mM)
[1]; 40 °C
  solubility: 9300 µg/mL (≈ 25.8 mM)
[1]; 60 °C
  solubility: 15600 µg/mL (≈ 43.3 mM)
[2]; 80° C.
  Hydrate peak growth (PXRD): no hydrate peak growth was observed
[2]; room temperature
  Hydrate peak growth (PXRD): hydrate peak growth was observed
[3]; [5]
  Physical and chemical stability on storage: physically and chemically stable
[3]; 55° C.
  Physical and chemical stability on storage: physically and chemically stable
[4]; 2-Me-THF, Ethyl Acetate, MeOH or MeOH/toluene (70:30 v/v), 50° C., seeded with Form 1 at 14 days, 28 days total
  Form conversion in slurry seeded with Form 1: full or conversion to Form 1
[4]; Ethyl Acetate and Isopropyl Acetate, 25° C., after 28 days
  Form conversion in slurry: Partial conversion
[4]; ~10 mg each of Form 1 and Form 2 in 1 mL MeOH, 50° C., after 4 days
  Form conversion in competitive slurry: full conversion to Form 1

## COc1cc(Nc2nn([C@H]3COCC[C@@H]3C#N)cc2C(N)=O)cc(F)n1 [Hydrate, 1-[(3R,4S)-4-cyanotetrahydropyran-3-yl]-3-[(2-fluoro-6-methoxy-4-pyridyl)amino]pyrazole-4-carboxamide]
[4]; in aqueous solutions
  Relative thermodynamic stability: most stable form in aqueous solutions
